From paper PMC9739180, “Discovery of a Flavonoid FM04 as a Potent Inhibitor to Reverse P-Glycoprotein-Mediated Drug Resistance in Xenografts and Improve Oral Bioavailability of Paclitaxel” (International Journal of Molecular Sciences, 2022)

Experiments:
BCRP = molecular target: T1, BCRP (Homo sapiens, UniProt Q9UNQ0); experiment: BCRP-modulating activity in HEK293/R2 cells (MTS); format: cell-based; details: 1 μM, HEK293/R2
T1 construct: expressed in transfected cells; host or cells: HEK293/R2
T1 sequence (Q9UNQ0 1-655): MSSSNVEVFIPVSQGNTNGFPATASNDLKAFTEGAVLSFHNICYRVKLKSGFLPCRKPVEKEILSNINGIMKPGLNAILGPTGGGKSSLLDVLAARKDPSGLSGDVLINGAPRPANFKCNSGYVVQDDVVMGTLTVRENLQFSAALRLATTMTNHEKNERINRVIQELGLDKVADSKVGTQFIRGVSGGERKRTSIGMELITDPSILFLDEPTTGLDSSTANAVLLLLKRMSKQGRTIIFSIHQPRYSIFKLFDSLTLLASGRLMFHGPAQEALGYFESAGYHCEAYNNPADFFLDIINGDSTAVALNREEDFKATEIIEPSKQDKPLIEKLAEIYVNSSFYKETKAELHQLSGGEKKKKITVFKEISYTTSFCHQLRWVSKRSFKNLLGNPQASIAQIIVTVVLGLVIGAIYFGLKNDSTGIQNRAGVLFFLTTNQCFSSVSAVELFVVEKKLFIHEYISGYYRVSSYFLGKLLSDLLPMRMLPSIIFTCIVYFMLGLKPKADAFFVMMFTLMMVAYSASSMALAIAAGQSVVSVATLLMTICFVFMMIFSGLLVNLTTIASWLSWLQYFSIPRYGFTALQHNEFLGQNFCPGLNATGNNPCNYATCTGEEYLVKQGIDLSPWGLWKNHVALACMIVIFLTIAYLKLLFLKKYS
Procedure: The final volume in each well of the 96-well plate was 200 μL. The plate was then incubated for 5 days at 37 °C. The cell viability was determined using an MTS assay as reported previously.

CYP2C8 and CYP3A4 = experiment: PTX metabolism in human liver microsomes: PTX level; format: in vitro ADME; details: HLM; in the presence of NADPH, no inhibitor
Procedure: Figure 7 Mechanistic study of FM04 to increase the oral PTX absorption. (A) transepithelial permeability of PTX in Caco-2 transwell assay. When confluent monolayer of Caco2 cells was formed on the transwell, the permeability of PTX (10 μM) was studied with or without FM04 (10 μM). For apical to basolateral transport (A to B), compound was added at the apical side (donor) and samples of the medium collected at the basal side (receiver) at 0, 20, 40, 60, 80, 100 and 120 min and vice versa for basal to apical transport (B to A). The PTX level was determined using UPLC-MS/MS. The relative % of PTX was presented as mean ± standard error of mean. N = 2–3 independent experiments. Impact of FM04 on PTX metabolism. […] After incubation, the levels of PTX, metabolites 6α-hydroxpaclitaxel (6α-OHP) and p3′-hydroxpaclitaxel (p3-OHP) were determined by HPLC-MS/MS. (B) changes in PTX. (C) changes in 6α-OHP. (D) changes in p3-OHP. […]
Drug solutions of PTX and FM04 were prepared in methanol. […] PTX and PTX metabolites were immediately analyzed by UPLC-MS/MS on the same day.
[^13C6]-paclitaxel (CAS: 379688-61-6) was the internal standard (IS) and purchased from Alsachim. Fifteen microliters of 10 μg/mL internal standard (IS) was added to all samples and calibration standards for quantification. […] PTX and both metabolites were semi-quantified base on the peak area ratio of the analyte/internal standard.

| Structure (SMILES) | reversal of BCRP-mediated topotecan resistance (BCRP) | reduction of PTX level (CYP2C8 and CYP3A4) [%] |
| --- | --- | --- |
| O=c1cc(-c2ccc(OCCOCCNCc3ccccc3)cc2)oc2ccccc12 [FM04, 2-(4-(2-(2-(benzylamino)ethoxy)ethoxy)phenyl)-4H-chromen-4-one] | did not reverse BCRP-mediated topotecan resistance | – |
| CC(=O)O[C@H]1C(=O)[C@@]2(C)[C@H]([C@H](OC(=O)c3ccccc3)[C@]3(O)C[C@H](OC(=O)[C@H](O)[C@@H](NC(=O)c4ccccc4)c4ccccc4)C(C)=C1C3(C)C)[C@]1(OC(C)=O)CO[C@@H]1C[C@@H]2O [PTX, paclitaxel] | – | 50 |
